The IC50 is the concentration that inhibits the measured activity by half.

IC50 data for one compound are collected here from ChEMBL document CHEMBL5727068, “Inhibitors of PTP4A3 for the treatment of cancer” (2019).

Each structure is given as a SMILES string.

This assay addresses Protein tyrosine phosphatase type IVA 3 (Homo sapiens, UniProt O75365). As to the kind of experiment: In Vitro Biochemical Evaluation: The in vitro biochemical evaluation of all compounds was carried out using recombinant human PTP4A3, overexpressed as a His6-tag fusion protein in E. coli and purified on a metal affinity column. Assays were performed using 6,8-difluoro-4-methylumbelliferyl phosphate (DiFMUP) as an artificial substrate at 25° C. for 30 min in 40 mM Tris-HCl (pH 7.0), 75 mM NaCl, 2 mM EDTA, and 4 mM DTT buffer. […] The fluorescence was measured using a SpectraMax M5 plate reader at 358 nm excitation and 455 nm emission. Fluorescence values were used to calculate the percent inhibition of enzyme activity relative to maximal activity, PTP4A3 in the absence of inhibitor, and maximal inhibition, PTP4A3 in the presence of 2 mM Na3VO4.

Chain of Protein tyrosine phosphatase type IVA 3 (O75365 whole entry, the tested form may be a part): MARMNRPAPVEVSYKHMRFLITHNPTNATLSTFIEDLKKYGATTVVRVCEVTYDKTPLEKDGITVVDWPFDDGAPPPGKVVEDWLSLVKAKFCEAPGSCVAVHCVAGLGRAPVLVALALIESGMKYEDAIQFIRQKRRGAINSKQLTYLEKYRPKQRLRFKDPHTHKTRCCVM

Turning to `O=c1[nH]c(=O)c2cc(-c3ccccc3)sc2[nH]1`, the 50% inhibitory concentration (IC50) was over 250 µM.
